Assay results from ChEMBL document CHEMBL5532744, “2-Aminopyridines as Potent and Selective Nav1.8 Inhibitors Exhibiting Efficacy in a Nonhuman Primate Pain Model” (ACS Med Chem Lett, 2024).
Converted amounts (≈) assume the structure as drawn. One block for each molecule: values may come before it.

Columns and labels:
[1] = biological target: Sodium channel protein type 5 subunit alpha (Homo sapiens, UniProt Q14524); assay: Inhibition of Nav1.5 (unknown origin)
[2] = Solubility of the compound at pH 7; type: physicochemical; settings: buffer
[3] = Volume of distribution in rat at 2 mg/kg, iv; type: ADME, organism-based; settings: in vivo
[4] = Unbound clearance in rat at 0.05 mg/kg, iv administered as cassette dose; type: ADME, organism-based; settings: in vivo
[5] = Tmax in dog at 2 mg/kg, po or 1 mg/kg, iv; type: ADME, organism-based, Canis lupus familiaris; settings: in vivo
[6] = Clearance in rat at 2 mg/kg, iv; type: ADME, organism-based; settings: in vivo
[7] = Bioavailability in dog at 2 mg/kg, po or 1 mg/kg, iv; type: ADME, organism-based, Canis lupus familiaris; settings: in vivo
[8] = Volume of distribution in rhesus monkey at 1 mg/kg, iv; type: ADME, organism-based, Macaca mulatta; settings: in vivo
[9] = Clearance in dog at 1 mg/kg, iv; type: ADME, organism-based, Canis lupus familiaris; settings: in vivo
[10] = Bioavailability in rhesus monkey at 2 mg/kg, po or 1 mg/kg, iv; type: ADME, organism-based, Macaca mulatta; settings: in vivo
[11] = Drug concentration in rhesus monkey plasma at 2 mg/kg, po; type: ADME, organism-based, Macaca mulatta; settings: in vivo
[12] = Unbound clearance in dog at 2 mg/kg, po; type: ADME, organism-based, Canis lupus familiaris; settings: in vivo
[13] = Half-life in rat plasma at 0.05 mg/kg, iv administered as cassette dose; type: ADME, organism-based
[14] = Unbound drug concentration in rhesus monkey plasma at 18 mg/kg, po; type: ADME, organism-based, Macaca mulatta; settings: in vivo
[15] = Unbound volume of distribution in rat at 10 mg/kg, po; type: ADME, organism-based; settings: in vivo
[16] = Half life in rat at 10 mg/kg, po or 2 mg/kg, iv; type: ADME, organism-based; settings: in vivo
[17] = biological target: Voltage-gated inwardly rectifying potassium channel KCNH2 (Homo sapiens, UniProt Q12809); assay: Inhibition of hERG; type: toxicity
Voltage-gated inwardly rectifying potassium channel KCNH2, sequence (Q12809 whole entry): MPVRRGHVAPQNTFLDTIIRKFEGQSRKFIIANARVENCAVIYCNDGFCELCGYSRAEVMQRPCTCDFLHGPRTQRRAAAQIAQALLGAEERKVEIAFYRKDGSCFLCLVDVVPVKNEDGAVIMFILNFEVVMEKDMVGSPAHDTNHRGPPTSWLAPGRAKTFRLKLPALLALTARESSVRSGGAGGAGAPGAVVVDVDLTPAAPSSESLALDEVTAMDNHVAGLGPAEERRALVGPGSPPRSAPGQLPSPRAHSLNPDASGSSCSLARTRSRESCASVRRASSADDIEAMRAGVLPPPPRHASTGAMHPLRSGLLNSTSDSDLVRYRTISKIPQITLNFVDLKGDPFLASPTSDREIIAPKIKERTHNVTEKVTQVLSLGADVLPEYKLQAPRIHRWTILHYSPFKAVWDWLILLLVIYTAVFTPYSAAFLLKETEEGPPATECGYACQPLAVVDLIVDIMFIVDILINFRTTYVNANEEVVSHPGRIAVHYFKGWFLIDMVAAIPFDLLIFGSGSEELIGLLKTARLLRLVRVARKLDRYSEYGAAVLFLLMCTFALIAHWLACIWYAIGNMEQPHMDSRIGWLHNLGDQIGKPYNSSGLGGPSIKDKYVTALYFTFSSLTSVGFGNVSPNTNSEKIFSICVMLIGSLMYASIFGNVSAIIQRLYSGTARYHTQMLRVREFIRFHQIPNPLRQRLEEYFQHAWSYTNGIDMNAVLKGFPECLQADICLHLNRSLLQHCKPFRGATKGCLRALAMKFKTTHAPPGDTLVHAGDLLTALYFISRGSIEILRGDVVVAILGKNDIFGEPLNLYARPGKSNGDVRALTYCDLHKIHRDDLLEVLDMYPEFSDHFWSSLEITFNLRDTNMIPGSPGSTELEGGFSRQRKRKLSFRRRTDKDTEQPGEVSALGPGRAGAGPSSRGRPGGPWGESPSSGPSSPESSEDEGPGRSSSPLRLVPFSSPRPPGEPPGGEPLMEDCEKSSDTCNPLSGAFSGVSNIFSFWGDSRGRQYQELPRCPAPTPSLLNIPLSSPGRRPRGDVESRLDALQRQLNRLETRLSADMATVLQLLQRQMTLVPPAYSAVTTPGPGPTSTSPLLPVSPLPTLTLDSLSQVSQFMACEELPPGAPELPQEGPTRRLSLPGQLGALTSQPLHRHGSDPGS

[18] = Unbound volume of distribution in rhesus monkey at 2 mg/kg, po; type: ADME, organism-based, Macaca mulatta; settings: in vivo
[19] = biological target: Sodium channel protein type 8 subunit alpha (Homo sapiens, UniProt Q9UQD0); assay: Inhibition of Nav1.6 (unknown origin)
Sodium channel protein type 8 subunit alpha, sequence (Q9UQD0 whole entry): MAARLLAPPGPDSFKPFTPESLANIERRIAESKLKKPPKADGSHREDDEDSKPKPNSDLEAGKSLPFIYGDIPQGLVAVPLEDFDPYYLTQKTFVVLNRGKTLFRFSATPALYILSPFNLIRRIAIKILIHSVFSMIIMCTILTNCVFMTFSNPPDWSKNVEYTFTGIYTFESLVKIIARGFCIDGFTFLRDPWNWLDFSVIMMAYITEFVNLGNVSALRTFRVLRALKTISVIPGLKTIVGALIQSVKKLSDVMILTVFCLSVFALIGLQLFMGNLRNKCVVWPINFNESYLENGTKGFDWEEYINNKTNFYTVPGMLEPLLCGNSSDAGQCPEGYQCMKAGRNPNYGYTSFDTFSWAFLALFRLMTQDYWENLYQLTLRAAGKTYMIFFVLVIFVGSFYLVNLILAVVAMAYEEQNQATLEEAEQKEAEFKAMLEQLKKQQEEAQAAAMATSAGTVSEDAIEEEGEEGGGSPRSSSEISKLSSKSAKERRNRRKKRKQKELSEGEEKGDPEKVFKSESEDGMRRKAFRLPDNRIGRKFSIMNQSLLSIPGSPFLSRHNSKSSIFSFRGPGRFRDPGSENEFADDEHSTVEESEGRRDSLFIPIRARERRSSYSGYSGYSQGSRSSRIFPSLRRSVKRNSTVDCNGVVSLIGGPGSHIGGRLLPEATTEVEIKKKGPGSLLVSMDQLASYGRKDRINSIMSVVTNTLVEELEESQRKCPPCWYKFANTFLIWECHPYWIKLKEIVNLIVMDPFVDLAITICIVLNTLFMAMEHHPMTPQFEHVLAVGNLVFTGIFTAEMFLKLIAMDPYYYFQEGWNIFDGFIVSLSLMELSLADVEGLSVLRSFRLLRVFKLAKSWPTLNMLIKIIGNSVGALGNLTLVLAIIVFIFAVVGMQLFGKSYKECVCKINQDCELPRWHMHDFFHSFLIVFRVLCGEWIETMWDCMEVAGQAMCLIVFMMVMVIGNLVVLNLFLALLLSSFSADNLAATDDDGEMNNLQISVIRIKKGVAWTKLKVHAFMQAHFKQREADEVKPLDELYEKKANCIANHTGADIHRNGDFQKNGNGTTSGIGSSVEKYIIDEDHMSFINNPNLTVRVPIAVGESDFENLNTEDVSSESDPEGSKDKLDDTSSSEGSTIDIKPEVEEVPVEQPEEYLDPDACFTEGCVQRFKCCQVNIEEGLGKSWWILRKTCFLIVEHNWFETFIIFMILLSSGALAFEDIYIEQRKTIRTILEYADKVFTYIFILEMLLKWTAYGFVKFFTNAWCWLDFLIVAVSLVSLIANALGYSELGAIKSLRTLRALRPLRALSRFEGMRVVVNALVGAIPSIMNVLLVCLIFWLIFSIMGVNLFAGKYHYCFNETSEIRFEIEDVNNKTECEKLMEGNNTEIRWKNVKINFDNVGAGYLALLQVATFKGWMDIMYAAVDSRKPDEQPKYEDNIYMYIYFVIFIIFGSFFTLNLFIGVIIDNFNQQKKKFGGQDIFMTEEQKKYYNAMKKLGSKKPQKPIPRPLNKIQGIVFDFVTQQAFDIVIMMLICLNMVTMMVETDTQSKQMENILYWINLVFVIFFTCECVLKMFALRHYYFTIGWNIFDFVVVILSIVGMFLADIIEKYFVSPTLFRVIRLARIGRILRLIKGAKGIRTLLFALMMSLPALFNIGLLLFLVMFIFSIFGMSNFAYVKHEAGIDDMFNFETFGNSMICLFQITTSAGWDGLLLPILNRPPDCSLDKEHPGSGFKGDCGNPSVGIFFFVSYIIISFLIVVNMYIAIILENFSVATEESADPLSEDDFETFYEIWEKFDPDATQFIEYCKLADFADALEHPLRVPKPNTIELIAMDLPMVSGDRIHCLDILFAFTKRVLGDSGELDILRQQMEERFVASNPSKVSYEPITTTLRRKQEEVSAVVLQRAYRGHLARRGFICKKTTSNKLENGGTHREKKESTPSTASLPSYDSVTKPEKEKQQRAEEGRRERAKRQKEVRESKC

[20] = Clearance in rhesus monkey at 1 mg/kg, iv; type: ADME, organism-based, Macaca mulatta; settings: in vivo
[21] = Half life in dog at 2 mg/kg, po or 1 mg/kg, iv; type: ADME, organism-based, Canis lupus familiaris; settings: in vivo
[22] = biological target: Sodium channel protein type 10 subunit alpha (Homo sapiens, UniProt Q9Y5Y9); assay: Inhibition of recombinant human Nav1.8 expressed in HEK293 cells by whole cell patch clamp method; type: cell-based
Sodium channel protein type 10 subunit alpha (Homo sapiens, UniProt Q9Y5Y9), sequence (Q9Y5Y9 whole entry): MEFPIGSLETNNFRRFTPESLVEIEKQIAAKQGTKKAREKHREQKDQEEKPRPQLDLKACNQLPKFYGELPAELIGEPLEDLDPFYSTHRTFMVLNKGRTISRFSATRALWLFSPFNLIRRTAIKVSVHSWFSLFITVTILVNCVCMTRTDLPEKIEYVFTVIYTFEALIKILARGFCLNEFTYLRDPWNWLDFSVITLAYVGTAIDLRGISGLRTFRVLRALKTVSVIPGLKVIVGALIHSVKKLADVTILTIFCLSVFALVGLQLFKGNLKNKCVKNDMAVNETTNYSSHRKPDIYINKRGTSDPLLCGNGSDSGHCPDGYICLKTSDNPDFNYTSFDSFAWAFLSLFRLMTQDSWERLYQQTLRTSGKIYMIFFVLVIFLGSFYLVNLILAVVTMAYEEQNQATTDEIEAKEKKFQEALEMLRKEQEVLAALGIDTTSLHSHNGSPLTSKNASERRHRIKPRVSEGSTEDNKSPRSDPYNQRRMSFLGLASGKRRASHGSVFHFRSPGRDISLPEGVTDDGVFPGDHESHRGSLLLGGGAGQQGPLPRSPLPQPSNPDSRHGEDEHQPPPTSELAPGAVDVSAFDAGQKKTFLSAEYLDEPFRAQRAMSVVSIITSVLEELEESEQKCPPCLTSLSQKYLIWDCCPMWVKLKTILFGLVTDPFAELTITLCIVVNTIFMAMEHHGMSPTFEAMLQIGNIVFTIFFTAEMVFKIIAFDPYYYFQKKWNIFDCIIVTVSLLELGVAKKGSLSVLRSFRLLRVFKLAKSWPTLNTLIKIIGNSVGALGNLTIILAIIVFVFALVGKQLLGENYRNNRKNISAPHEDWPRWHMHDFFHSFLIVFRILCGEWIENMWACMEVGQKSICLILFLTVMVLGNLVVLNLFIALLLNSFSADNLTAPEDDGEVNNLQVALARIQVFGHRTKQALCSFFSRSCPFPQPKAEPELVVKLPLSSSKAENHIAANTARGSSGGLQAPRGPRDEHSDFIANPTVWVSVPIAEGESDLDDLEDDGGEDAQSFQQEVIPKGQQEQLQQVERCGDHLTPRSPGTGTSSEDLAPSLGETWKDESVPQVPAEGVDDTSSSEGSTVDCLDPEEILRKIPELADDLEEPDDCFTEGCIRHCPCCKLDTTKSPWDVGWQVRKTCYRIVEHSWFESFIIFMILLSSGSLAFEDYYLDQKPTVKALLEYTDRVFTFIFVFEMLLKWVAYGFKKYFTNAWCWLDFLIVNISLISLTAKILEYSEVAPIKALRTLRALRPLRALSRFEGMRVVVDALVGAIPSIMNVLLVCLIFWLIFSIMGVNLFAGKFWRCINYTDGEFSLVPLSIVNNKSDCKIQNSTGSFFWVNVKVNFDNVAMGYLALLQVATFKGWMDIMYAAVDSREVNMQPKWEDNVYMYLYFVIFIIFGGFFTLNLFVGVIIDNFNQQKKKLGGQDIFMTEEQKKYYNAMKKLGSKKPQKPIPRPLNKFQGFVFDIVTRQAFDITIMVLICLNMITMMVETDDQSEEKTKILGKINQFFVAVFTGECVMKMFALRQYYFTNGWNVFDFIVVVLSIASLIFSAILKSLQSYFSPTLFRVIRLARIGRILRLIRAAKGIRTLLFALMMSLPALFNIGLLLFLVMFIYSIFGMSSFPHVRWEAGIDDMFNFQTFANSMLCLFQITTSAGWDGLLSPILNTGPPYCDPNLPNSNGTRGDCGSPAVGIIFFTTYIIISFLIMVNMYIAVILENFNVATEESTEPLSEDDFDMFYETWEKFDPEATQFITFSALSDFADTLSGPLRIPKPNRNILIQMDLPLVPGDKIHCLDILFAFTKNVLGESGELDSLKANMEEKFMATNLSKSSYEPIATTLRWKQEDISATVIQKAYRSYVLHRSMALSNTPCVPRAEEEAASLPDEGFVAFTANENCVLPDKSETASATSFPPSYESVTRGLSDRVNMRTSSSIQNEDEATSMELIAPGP

[23] = Unbound clearance in rhesus monkey at 2 mg/kg, po; type: ADME, organism-based, Macaca mulatta; settings: in vivo
[24] = Apparent permeability of compound; type: ADME; settings: not told
[25] = Unbound volume of distribution in dog at 2 mg/kg, po; type: ADME, organism-based, Canis lupus familiaris; settings: in vivo
[26] = Tmax in rhesus monkey at 2 mg/kg, po or 1 mg/kg, iv; type: ADME, organism-based, Macaca mulatta; settings: in vivo
[27] = Tmax in rat at 10 mg/kg, po or 2 mg/kg, iv; type: ADME, organism-based; settings: in vivo
[28] = Unbound drug concentration in rhesus monkey plasma at 6 mg/kg, po; type: ADME, organism-based, Macaca mulatta; settings: in vivo
[29] = Unbound drug concentration in rhesus monkey plasma at 2 mg/kg, po; type: ADME, organism-based, Macaca mulatta; settings: in vivo
[30] = Bioavailability in rat at 10 mg/kg, po or 2 mg/kg, iv; type: ADME, organism-based; settings: in vivo
[31] = Volume of distribution in dog at 1 mg/kg, iv; type: ADME, organism-based, Canis lupus familiaris; settings: in vivo
[32] = Drug concentration in rhesus monkey plasma at 6 mg/kg, po; type: ADME, organism-based, Macaca mulatta; settings: in vivo
[33] = Drug concentration in rhesus monkey plasma at 18 mg/kg, po; type: ADME, organism-based, Macaca mulatta; settings: in vivo
[34] = Half life in rhesus monkey at 2 mg/kg, po or 1 mg/kg, iv; type: ADME, organism-based, Macaca mulatta; settings: in vivo
[35] = biological target: Voltage-dependent L-type calcium channel subunit alpha-1C (Homo sapiens, UniProt Q13936); assay: Inhibition of Cav1.2 (unknown origin)
[36] = biological target: Sodium channel protein type 2 subunit alpha (Homo sapiens, UniProt Q99250); assay: Inhibition of Nav1.2 (unknown origin)
[37] = Unbound clearance in rat at 10 mg/kg, po; type: ADME, organism-based; settings: in vivo
[38] = biological target: Sodium channel protein type 10 subunit alpha (Rattus norvegicus, UniProt Q62968); assay: Inhibition of rat neuronal Nav1.8 by patch clamp electrophysiology
[39] = biological target: Sodium channel protein type 9 subunit alpha (Homo sapiens, UniProt Q15858); assay: Inhibition of Nav1.7 (unknown origin)

solubility [2]: 150 µM (≈ 69.7 µg/mL) | Vd [3]: 1.3 L/kg | CL free [4]: 6 L/h/kg | Tmax [5]: 1.5 h | clearance [6]: 0.426 L/h/kg | bioavailability [7]: 45% | Vd [8]: 1.68 L/kg | clearance [9]: 0.0576 L/h/kg | bioavailability [10]: 77% | concentration [11]: 2.18 µM | CL free [12]: 2.4 L/h/kg | half-life [13]: 3.3 h | Cp(f) [14]: 0.948 µM | Vdu [15]: 19 L/kg | half-life [16]: 2.2 h | Vdu [18]: 33 L/kg | EC50 [19]: > 30 µM | clearance [20]: 0.189 L/h/kg | half-life [21]: 8.8 h | EC50 [22]: 0.042 µM | CL free [23]: 3.72 L/h/kg | Papp [24]: 280 nm/s | Vdu [25]: 30 L/kg | Tmax [26]: 2.5 h | Tmax [27]: 2.5 h | Cp(f) [28]: 0.312 µM | Cp(f) [29]: 0.111 µM | bioavailability [30]: 82% | Vd [31]: 0.73 L/kg | concentration [32]: 6.11 µM | concentration [33]: 18.6 µM | half-life [34]: 6.6 h | EC50 [36]: > 30 µM | CL free [37]: 6 L/h/kg
SMILES: NS(=O)(=O)c1cccc(NC(=O)c2cc(C(F)(F)F)cnc2N2CCC(F)(F)CC2)c1
EC50 [1]: > 30 µM | IC50 [17]: > 30 µM | IC50 [35]: 27 µM

IC50 [38]: 0.08 µM | EC50 [19]: > 30 µM | IC50 [39]: > 30 µM
SMILES: CC(C)(C)c1cc(C(=O)Nc2cccc(S(N)(=O)=O)c2)n(Cc2ccccc2)n1
EC50 [1]: > 30 µM

solubility [2]: 58 µM (≈ 21.7 µg/mL) | CL free [4]: 66 L/h/kg | half-life [13]: 0.55 h | EC50 [22]: 0.86 µM
SMILES: Cc1ccc(C(=O)Nc2cccc(S(N)(=O)=O)c2)c(N2CCCCC2)n1

solubility [2]: 160 µM (≈ 74.3 µg/mL) | CL free [4]: 12.6 L/h/kg | half-life [13]: 1.1 h | EC50 [22]: 0.24 µM
SMILES: NS(=O)(=O)c1cccc(NC(=O)c2cc(C(F)(F)F)cnc2N2CCCC(F)(F)C2)c1

IC50 [38]: 21 µM | EC50 [19]: > 30 µM | IC50 [39]: > 30 µM
SMILES: COc1ccccc1NC(=O)c1nc2ccccc2nc1N1CCCCC1
EC50 [1]: > 30 µM

solubility [2]: 53 µM (≈ 24.1 µg/mL) | CL free [4]: 15 L/h/kg | half-life [13]: 2.8 h | EC50 [22]: 0.032 µM
SMILES: NS(=O)(=O)c1cccc(NC(=O)c2cc(C(F)(F)F)cnc2N2CCC3(CC2)CC3)c1

EC50 [22]: 20 µM
SMILES: CN1CCN(c2nc3ccccc3cc2C(=O)Nc2cccc(S(N)(=O)=O)c2)CC1

solubility [2]: 68 µM (≈ 30.9 µg/mL) | CL free [4]: 108 L/h/kg | half-life [13]: 0.72 h | EC50 [22]: 0.034 µM
SMILES: NS(=O)(=O)c1cccc(NC(=O)c2cc(C(F)(F)F)cnc2N2CCCC3(CC3)C2)c1

solubility [2]: 14 µM (≈ 5.24 µg/mL) | EC50 [22]: 14 µM
SMILES: Cc1cnc(N2CCCCC2)c(C(=O)Nc2cccc(S(N)(=O)=O)c2)c1

solubility [2]: 120 µM (≈ 53.1 µg/mL) | CL free [4]: 108 L/h/kg | half-life [13]: 0.62 h | EC50 [22]: 0.012 µM
SMILES: NS(=O)(=O)c1cccc(NC(=O)c2cc(C(F)(F)F)cnc2N2CCCCCC2)c1

EC50 [22]: 0.11 µM
SMILES: NS(=O)(=O)c1cccc(NC(=O)c2nc3ccccc3nc2N2CCCCC2)c1

solubility [2]: 11 µM (≈ 4.27 µg/mL) | CL free [4]: 174 L/h/kg | half-life [13]: 0.57 h | EC50 [22]: 0.32 µM
SMILES: Cc1cc(C(=O)Nc2cccc(S(N)(=O)=O)c2)c(N2CCCCC2)nc1C

EC50 [22]: 22 µM
SMILES: NS(=O)(=O)c1cccc(NC(=O)c2cccnc2N2CCCCC2)c1

EC50 [22]: > 30 µM
SMILES: CN1CCN(c2nc3ccccc3nc2C(=O)Nc2cccc(S(N)(=O)=O)c2)CC1

solubility [2]: 160 µM (≈ 66.3 µg/mL) | EC50 [22]: 2 µM
SMILES: NS(=O)(=O)c1cccc(NC(=O)c2cc(C(F)(F)F)cnc2N2CCCC2)c1

solubility [2]: 110 µM (≈ 52.6 µg/mL) | CL free [4]: 36 L/h/kg | half-life [13]: 1.1 h
SMILES: NS(=O)(=O)c1cccc(NC(=O)c2cc(C(F)(F)F)cnc2N2CCCC(F)(F)CC2)c1

solubility [2]: 120 µM (≈ 51.4 µg/mL) | CL free [4]: 22.2 L/h/kg | half-life [13]: 1.5 h | EC50 [22]: 0.22 µM
SMILES: NS(=O)(=O)c1cccc(NC(=O)c2cc(C(F)(F)F)cnc2N2CCCCC2)c1

solubility [2]: 91 µM (≈ 39 µg/mL) | CL free [4]: 78 L/h/kg | half-life [13]: 0.89 h | EC50 [22]: 0.29 µM
SMILES: NS(=O)(=O)c1cccc(NC(=O)c2ccc(C(F)(F)F)nc2N2CCCCC2)c1

EC50 [22]: 2 µM
SMILES: NS(=O)(=O)c1cccc(NC(=O)c2cc3ccccc3nc2N2CCOCC2)c1
